Test results published in article PMC9180926, “Discovery of Novel 3-Hydroxyquinazoline-2,4(1H,3H)-Dione Derivatives: A Series of Metal Ion Chelators with Potent Anti-HCV Activities” (International Journal of Molecular Sciences, 2022).
Entries after “also recorded” stand apart in the source; their conditions may differ. Like-named read-outs stand apart in the source and are kept apart here.

Tests used:
[1] = tested on: NS5B; details: cited from earlier work
[2] = tested on: HCV; details: cited from earlier work
[3] = tested on: HCV 1b replicon cells (Huh-7.5.1); experiment: Anti-HCV assay, HCV 1b replicon cells with luciferase reporter; assay type: cell-based, hepatitis C virus (HCV) subtype 1b; details: HCV 1b replicon cells; for EC50: mean ± SD; for inhibition at 25 µM / inhibition at 10 µM: Huh-7.5.1, 72 h, 72 h; for inhibition at 25 µM: inhibitory rate at 25 μM, read-out: HCV Inhibition 25 μM; for inhibition at 10 µM: inhibitory rate at 10 μM, read-out: HCV Inhibition 10 μM
Procedure: (§1) The HCV replicons were validated as convenient and effective models for testing the anti-HCV activity. Since HCV subtype 1b is one of the major subtypes worldwide, especially in China, the replicon model from the Huh-7.5.1 cell line integrating HCV 1b genome encoding the nonstructural proteins was chosen to evaluate the anti-HCV activities of 3-hydroxyquinazoline-2,4(1H,3H)-diones. The inhibitory rates of the compounds on HCV replicon cells were determined at concentrations of 25 μM and 10 μM, respectively. The broad-spectrum antiviral drug ribavirin (RBV) and the NS5B nucleoside inhibitor 2′-C-methyladenosine (2CMA) were selected as positive controls. The cytotoxicity of these compounds on replicon cells was determined using the cell counting kit-8 (CCK-8) assay.
HCV 1b replicon cells (Huh-7.5.1) containing luciferase reporter gene were kindly provided by Prof. Zhenghong Yuan (Key Laboratory of Medical Molecular Virology, Fudan University, Shanghai, China). The replicon cells were plated at 1.5 × 10^4 cells per well in a 48-well plate (Corning Inc., New York, NY, USA) at 5% CO2/37 °C. The culture medium was Dulbecco’s Modified Eagle Medium (DMEM, pH 7.3, Shanghai XP Biomed Ltd., Shanghai, China) containing 10% fetal bovine serum (Shanghai XP Biomed Ltd., Shanghai, China), 10^5 U/L penicillin, 0.1 g/L streptomycin, and 0.5 μg/mL blasticidin. After 12 h, the culture medium in each well was replaced with 300 μL of pre-prepared fresh culture medium containing test compound (dissolved in DMSO with specific concentration) or blank DMSO. The final concentration of DMSO in the culture medium in the plate was 0.1%. Each group was tested at least twice in parallel. Ribavirin and 2CMA were used as the positive controls. After incubating the drug-added plate at 5% CO2/37 °C for 72 h, the medium was removed, and each well was washed with 300 μL of phosphate buffer solution (PBS, Shanghai XP Biomed Ltd., Shanghai, China). The cells in each well were then lysed with 50 μL of 1× lysis buffer (E2820, Promega, Madison, WI, USA). Subsequently, 50 μL of 1× luciferase assay substrate (E2820, Promega, Madison, WI, USA) was mixed with 20 μL of the harvested cell lysates.
The inhibitory rates under at least six different concentration gradients were imported into GraphPad Prism 7.0 software to calculate the anti-HCV EC50 values of the compounds using the nonlinear fitting method.

[4] = Cytotoxicity assay (CCK-8) on replicon cells; assay type: cell-based; details: human, HCV 1b replicon cells (Huh-7.5.1); 50% cytotoxic concentration; CCK-8, HCV 1b replicon cells, 72 h
Procedure: as §1
(§2) The HCV 1b replicon cells were incubated and treated with test compounds or blank DMSO in a 48-well plate using the same materials and methods as described in the experimental procedure of anti-HCV assay. The final concentration of DMSO in each well was 0.1%. After 72 h of drug treatment, the culture medium in the well plate was removed, and cells in each well were washed with 300 μL of PBS. A total of 300 μL of pre-prepared fresh culture medium containing 30 μL CCK-8 reagent (Donjindo, Kumamoto, Japan) was added to each well, and the plate was incubated at 5% CO2/37 °C for 2 h. The OD (optical density) value of each well at 450 nm was measured using a multi-function microplate reader (SpectraMax M5, Molecular Devices, San Jose, CA, USA). The death ratio of each well was calculated using the following equation, in which ODcompound or ODblank represents the measured OD value of the compound group or the blank control (DMSO), respectively:death ratio = (1−ODcompound/ODblank) × 100%(2)
(§3) The cell death data under at least six different concentration gradients were imported into GraphPad Prism 7.0.0 software (GraphPad Software Inc., San Diego, CA, USA), and the CC50 (50% cytotoxic concentration) values were calculated using the nonlinear fitting method.

[5] = tested on: HCV 1b replicon cells (Huh-7.5.1); experiment: Cytotoxicity assay (CCK-8) on replicon cells; assay type: cell-based; details: replicon cells, tested concentrations
Procedure: as §1, §2, §3

[6] = tested on: HCV 1b replicon cells (Huh-7.5.1); experiment: Anti-HCV assay, HCV 1b replicon cells with luciferase reporter; assay type: cell-based, hepatitis C virus (HCV) subtype 1b; details: Hepatitis C virus, Huh-7.5.1, 72 h, inhibitory rate at 5 μM
[7] = molecular target: T1, C-terminal His-tagged NS5BΔ21 from HCV 1b subtype (Hepatitis C virus genotype 1b, UniProt Q913V3); experiment: Thermal shift assay with NS5B protein; assay type: binding; details: for ΔTm at 50 µM: compound 50 μM; for ΔTm at 100 µM: compound 100 μM
T1 construct: C-terminal His-tagged NS5BΔ21 from HCV 1b subtype; His tag (C); made in house
T1 sequence (Q913V3 2420-2989, stated change not applied): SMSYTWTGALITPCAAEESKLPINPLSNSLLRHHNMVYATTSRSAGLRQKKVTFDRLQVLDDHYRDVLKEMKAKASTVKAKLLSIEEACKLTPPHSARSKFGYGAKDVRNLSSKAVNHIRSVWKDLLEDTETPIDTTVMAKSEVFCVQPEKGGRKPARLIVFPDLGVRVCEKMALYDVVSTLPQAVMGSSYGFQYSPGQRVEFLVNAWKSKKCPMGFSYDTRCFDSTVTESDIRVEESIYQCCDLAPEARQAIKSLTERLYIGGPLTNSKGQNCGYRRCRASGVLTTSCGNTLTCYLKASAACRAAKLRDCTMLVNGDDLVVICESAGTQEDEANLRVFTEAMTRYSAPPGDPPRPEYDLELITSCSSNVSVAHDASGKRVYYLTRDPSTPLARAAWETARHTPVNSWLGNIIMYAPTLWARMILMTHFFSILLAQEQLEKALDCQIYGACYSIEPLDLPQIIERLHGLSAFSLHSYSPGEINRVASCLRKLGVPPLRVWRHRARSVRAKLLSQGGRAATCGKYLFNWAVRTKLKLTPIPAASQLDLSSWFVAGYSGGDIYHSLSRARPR
From the text: The stability of a protein system is enhanced after binding to its specific ligand, leading to an increase in the melting temperature (Tm). Taking advantage of this feature, the thermal shift assay was extensively used to assess the binding of small molecules to the protein targets. The metal ion chelators were thought to exert an anti-HCV effect by chelating with Mg^2+ in the catalytic center of NS5B [34, 36, 38]. […] C-terminal His-tagged NS5BΔ21 from HCV 1b subtype was used as the protein in the experiment. Compared with the blank control (DMSO), the fluorescence–temperature curves of the NS5B system in the presence of 21e (Figure 3A) and 21k (Figure 3B) at 50 μM, 100 μM, and 200 μM all shifted to the right of the axis. The Tm values of 21e and 21k increased in a concentration-dependent manner, presenting higher values than that of the blank control (Tm = 63.5 °C) at all tested concentrations.
C-terminal His-tagged NS5BΔ21 from HCV 1b subtype was expressed from pET28a HCR6 plasmid in our lab and dissolved in a Tris-HCl buffer (20 mm, pH 7.2) containing 150 mm NaCl. Then, 1 μL of corresponding concentration (1 mm, 2 mm, or 4 mm) of the test compound in DMSO or 1 μL DMSO alone was added to each well of a 96-well PCR plate (Shanghai Sangon Biotech Co., Ltd., Shanghai, China). Subsequently, 19 μL of pre-prepared PBS solution containing 10 mm MgCl2, 10× SYPRO® orange protein gel stain (Sigma-Aldrich, St. Louis, MO, USA), and 5 μM NS5B protein was added to each well and mixed. The final concentration of DMSO in each well was 5%. The PCR plate was covered with a high-permeable film, incubated at room temperature for 10 min, and then placed on the Applied Biosystems^TM 7500 Real-Time PCR System (Thermo Fisher Scientific, Waltham, MA, USA). The temperature was increased to 90 °C gradually, and the change curve of fluorescence intensity versus system temperature was recorded.

[8] = design: method as in PMID 22100256; details: Figure 1; read-out: NS5B CC50; cited from earlier work
[9] = 5,6-dihydroxypyrimidine-4-carboxylic acids
[10] = Hepatitis C virus, Huh-7.5.1, 50% effective concentration
[11] = Tm of compound group minus Tm of blank control, mean ± SD, three experiments

## O=C(NCc1ccccc1Cl)Nc1cscc1-c1nc(O)c(O)c(C(=O)O)n1 [compound 5]
[1]; [9]
  IC50: 0.15 µM
[2]; cellular level
  EC50: 9.3 µM

## NC(=O)c1ncn([C@@H]2O[C@H](CO)[C@@H](O)[C@H]2O)n1 [RBV, ribavirin, reference compound]
[3]; [10]
  EC50: 20 ± 4.1 µM
[3]; Hepatitis C virus
  inhibition at 25 µM: 53.2%
[4]
  CC50 at 72 h: 45.5 ± 2.6 µM
[2]; cellular level, reported
  EC50: 14 µM

## O=c1[nH]c2cc(-c3ccc(C(F)(F)F)cc3)ccc2c(=O)n1O [21h, 3-Hydroxy-7-(4-(trifluoromethyl)phenyl)quinazoline-2,4(1H,3H)-dione]
[3]; 50% effective concentration
  EC50: 9.6 ± 2.7 µM
[3]; [10]
  EC50: < 10 µM
[3]; Hepatitis C virus
  inhibition at 10 µM: 53.8%
[4]
  CC50 at 72 h: > 50 µM
[5]
  cytotoxicity (in words): no cytotoxicity was observed
[6]
  inhibition at 5 µM: 5%

## O=c1c2ccccc2n(CCc2ccc(F)cc2)c(=O)n1O [10d, 1-(4-Fluorophenethyl)-3-hydroxyquinazoline-2,4(1H,3H)-dione]
[3]; [10]
  EC50: 13.3 ± 0.9 µM
[3]; Hepatitis C virus
  inhibition at 10 µM: 36.4%
  inhibition at 25 µM: 75.7%
[4]
  CC50 at 72 h: 22.2 ± 4.6 µM
[5]
  cytotoxicity (in words): some cytotoxicity

## O=C(O)c1occc(=O)c1O [compound 3]
[1]; meconic acids
  IC50: 2.25 µM
[2]; cellular level
  EC50: > 50 µM

## O=c1c2ccccc2n(CCc2ccccc2Cl)c(=O)n1O [10c, 1-(2-Chlorophenethyl)-3-hydroxyquinazoline-2,4(1H,3H)-dione]
[3]; [10]
  EC50: > 12.2 µM
[3]; Hepatitis C virus
  inhibition at 10 µM: 33.4%
  inhibition at 25 µM: 67.8%
[4]
  CC50 at 72 h: 12.2 µM
[5]
  cytotoxicity (in words): some cytotoxicity

## N#Cc1c(Cl)cc(Cl)cc1COc1cccc(C(=O)CC(=O)C(=O)O)c1 [compound 2]
[1]; α,γ-diketo acids
  IC50: 0.045 µM

## C[C@@]1(O)[C@H](O)[C@@H](CO)O[C@H]1n1cnc2c(N)ncnc21 [2CMA, 2′-C-methyladenosine, reference compound]
[3]; [10]
  EC50: 0.36 ± 0.03 µM
[4]
  CC50 at 72 h: > 10 µM
[2]; reported
  EC50: 0.3 µM

## Nc1ncnc2c1ncn2[C@@H]1O[C@H](COP(=O)(O)OP(=O)(O)O)[C@@H](O)[C@H]1O [ADP, adenosine diphosphate, reference compound]
[7]; [11]
  ΔTm at 50 µM: 0.44 ± 0.11 °C
  ΔTm at 100 µM: 0.62 ± 0.05 °C
[7]; compound 200 μM, Tm of compound group minus Tm of blank control, mean ± SD, three experiments
  ΔTm 200 μM: 0.88 ± 0.06 °C
[7]; read-out: ΔTm 200 μM, compound 200 μM, Tm of compound group minus Tm of blank control, mean ± SD, three experiments
  ΔTm at 200 µM: 0.87 °C

## O=c1[nH]c2cc(-c3cccc([N+](=O)[O-])c3)ccc2c(=O)n1O [21k, 3-Hydroxy-7-(3-nitrophenyl)quinazoline-2,4(1H,3H)-dione]
[3]; Hepatitis C virus
  inhibition at 10 µM: 70.6%
[4]
  CC50 at 72 h: 40.9 ± 3.5 µM
[7]; [11]
  ΔTm at 50 µM: 0.87 ± 0.12 °C
  ΔTm at 100 µM: 1.6 ± 0.08 °C
[7]; compound 200 μM, Tm of compound group minus Tm of blank control, mean ± SD, three experiments, read-out: ΔTm 200 μM
  ΔTm at 200 µM: 2.1 ± 0.44 °C
[7]; in Figure 3, blank control Tm = 63.5 °C
  Tm of NS5B complexed with compound: 65.6 °C
[6]
  inhibition at 5 µM: 55%

## O=C1Cc2cc(-c3ccco3)ccc2C(=O)N1O [compound 6]
[1]; 2-hydroxyisoquinoline-1,3-diones
  IC50: 1.3 µM
[2]; cellular level, reported
  EC50: 1.9 µM
[8]
  CC50: 13 µM

## O=C(O)c1nc(-c2cccs2)nc(O)c1O [compound 4]
[1]; [9]
  IC50: 2.6 µM
[2]; cellular level
  EC50: > 100 µM

## O=C(O)C(=O)CC(=O)c1ccccc1 [compound 1]
[1]; α,γ-diketo acids
  IC50: 5.7 µM

## O=c1[nH]c2cc(-c3cc4ccccc4o3)ccc2c(=O)n1O [21t, 7-(Benzofuran-2-yl)-3-hydroxyquinazoline-2,4(1H,3H)-dione]
[3]; Hepatitis C virus
  inhibition at 10 µM: 68.3%
  inhibition at 25 µM: 78.5%
[4]
  CC50 at 72 h: > 50 µM
[5]
  cytotoxicity (in words): no obvious cytotoxic effect; also recorded: No cytotoxic effect was observed
